Measured values taken from ChEMBL document CHEMBL1201862, “PubChem BioAssay data set” (2004).
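Briefly, cells in 96-well plates were exposed to five compound concentrations for 48 h, and endpoints were estimated by linear interpolation. The concentration for 50% growth inhibition is given as GI50.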 Active and inactive are the calls of the source. Rule as the data show it: active = GI50 up to about 1.1 µM and inactive = higher. Non-standard residues stand in square brackets, D forms with d. Residues, ends and D or L forms follow the SMILES beside them. ξ: configuration not given here. *: point of attachment. ξF = NC(Cc1ccccc1)C(=O)O; Cbz = O=C(OCc1ccccc1)*

Experiments:
Experiment in all cases: inhibition of tumour cell growth, NCI panel, 48 h
786-0 = system: 786-0
A549 = system: A549
ACHN = system: ACHN
BT-549 = system: BT-549
CAKI-1 = system: CAKI-1
CCRF-CEM = system: CCRF-CEM
COLO 205 = system: COLO 205
DU-145 = system: DU-145
EKVX = system: EKVX
HCC 2998 = system: HCC 2998
HCT-116 = system: HCT-116
HCT-15 = system: HCT-15
HL-60 = system: HL-60
HOP-62 = system: HOP-62
HOP-92 = system: HOP-92
HT-29 = system: HT-29
Hs-578T = system: Hs-578T
IGROV-1 = system: IGROV-1
K562 = system: K562
KM12 = system: KM12
LOX IMVI = system: LOX IMVI
M14 = system: M14
MCF7 = system: MCF7
MDA-MB-231 = system: MDA-MB-231
MDA-MB-435 = system: MDA-MB-435
MDA-N = system: MDA-N
MOLT-4 = system: MOLT-4
Malme-3M = system: Malme-3M
NCI-H226 = system: NCI-H226
NCI-H23 = system: NCI-H23
NCI-H460 = system: NCI-H460
NCI-H522 = system: NCI-H522
NCI/ADR-RES = system: NCI/ADR-RES
OVCAR-3 = system: OVCAR-3
OVCAR-4 = system: OVCAR-4
OVCAR-5 = system: OVCAR-5
OVCAR-8 = system: OVCAR-8
PC-3 = system: PC-3
RPMI-8226 = system: RPMI-8226
RXF 393 = system: RXF 393
SF-268 = system: SF-268
SF-295 = system: SF-295
SF-539 = system: SF-539
SK-MEL-28 = system: SK-MEL-28
SK-MEL-2 = system: SK-MEL-2
SK-MEL-5 = system: SK-MEL-5
SK-OV-3 = system: SK-OV-3
SN12C = system: SN12C
SNB-19 = system: SNB-19
SNB-75 = system: SNB-75
SR = system: SR
SW-620 = system: SW-620
T47D = system: T47D
TK-10 = system: TK-10
U-251 = system: U-251
UACC-257 = system: UACC-257
UACC-62 = system: UACC-62
UO-31 = system: UO-31
A498 = system: A498

Measured: GI50

N=C1/C(=C/c2ccco2)C(=O)N=C2SC=NN12
> 100 µM: HCT-15
inactive: 786-0 > 100 µM | A549 > 100 µM | ACHN > 100 µM | BT-549 > 100 µM | CAKI-1 > 100 µM | CCRF-CEM > 100 µM | COLO 205 > 100 µM | DU-145 > 100 µM | EKVX > 100 µM | HCC 2998 > 100 µM | HCT-116 > 100 µM | HL-60 > 100 µM | HOP-62 > 100 µM | HOP-92 > 100 µM | HT-29 > 100 µM | Hs-578T > 100 µM | IGROV-1 > 100 µM | K562 > 100 µM | KM12 > 100 µM | LOX IMVI > 100 µM | M14 > 100 µM | MCF7 > 100 µM | MDA-MB-231 > 100 µM | MDA-MB-435 > 100 µM | MDA-N > 100 µM | MOLT-4 > 100 µM | Malme-3M > 100 µM | NCI-H226 > 100 µM | NCI-H23 > 100 µM | NCI-H460 > 100 µM | NCI-H522 > 100 µM | NCI/ADR-RES > 100 µM | OVCAR-3 > 100 µM | OVCAR-4 > 100 µM | OVCAR-5 > 100 µM | OVCAR-8 > 100 µM | PC-3 > 100 µM | RPMI-8226 > 100 µM | RXF 393 > 100 µM | SF-268 > 100 µM | SF-295 > 100 µM | SF-539 > 100 µM | SK-MEL-28 > 100 µM | SK-MEL-2 > 100 µM | SK-MEL-5 > 100 µM | SK-OV-3 > 100 µM | SN12C > 100 µM | SNB-19 > 100 µM | SNB-75 99.1 µM | SR > 100 µM | SW-620 > 100 µM | T47D > 100 µM | TK-10 > 100 µM | U-251 > 100 µM | UACC-257 > 100 µM | UACC-62 > 100 µM | UO-31 > 100 µM

CCOC(=O)CNC(=O)C(Cc1ccccc1)NC(=O)OCc1ccccc1 (stereo not given) (Cbz-[ξF]-Gly-OEt)
> 100 µM: HCT-15
inactive: 786-0 > 100 µM | A498 53.8 µM | A549 > 100 µM | ACHN > 100 µM | BT-549 > 100 µM | CCRF-CEM > 100 µM | COLO 205 > 100 µM | DU-145 > 100 µM | EKVX > 100 µM | HCC 2998 > 100 µM | HCT-116 > 100 µM | HL-60 > 100 µM | HOP-62 > 100 µM | HOP-92 > 100 µM | HT-29 > 100 µM | Hs-578T 70.8 µM | IGROV-1 > 100 µM | K562 > 100 µM | KM12 > 100 µM | LOX IMVI > 100 µM | M14 > 100 µM | MCF7 > 100 µM | MDA-MB-231 > 100 µM | MDA-MB-435 > 100 µM | MDA-N > 100 µM | MOLT-4 > 100 µM | Malme-3M 86.3 µM | NCI-H226 > 100 µM | NCI-H23 > 100 µM | NCI-H460 > 100 µM | NCI/ADR-RES > 100 µM | OVCAR-3 > 100 µM | OVCAR-5 > 100 µM | OVCAR-8 > 100 µM | PC-3 > 100 µM | RPMI-8226 > 100 µM | SF-268 > 100 µM | SF-295 > 100 µM | SK-MEL-5 > 100 µM | SK-OV-3 > 100 µM | SN12C > 100 µM | SNB-19 > 100 µM | SNB-75 > 100 µM | SR > 100 µM | SW-620 > 100 µM | T47D 71.9 µM | U-251 > 100 µM | UO-31 > 100 µM

Cn1c2ccccc2c(=S)c2ccccc21
inactive: 786-0 > 100 µM | A498 > 100 µM | A549 > 100 µM | ACHN > 100 µM | BT-549 > 100 µM | CAKI-1 > 100 µM | CCRF-CEM > 100 µM | COLO 205 > 100 µM | DU-145 > 100 µM | EKVX > 100 µM | HCC 2998 > 100 µM | HCT-116 > 100 µM | HOP-62 > 100 µM | HOP-92 > 100 µM | HT-29 > 100 µM | Hs-578T > 100 µM | IGROV-1 > 100 µM | K562 > 100 µM | KM12 > 100 µM | LOX IMVI > 100 µM | M14 > 100 µM | MCF7 > 100 µM | MDA-MB-231 > 100 µM | MDA-MB-435 > 100 µM | MDA-N > 100 µM | MOLT-4 > 100 µM | NCI-H226 > 100 µM | NCI-H23 > 100 µM | NCI-H460 > 100 µM | NCI-H522 > 100 µM | NCI/ADR-RES > 100 µM | OVCAR-3 > 100 µM | OVCAR-5 > 100 µM | OVCAR-8 > 100 µM | PC-3 > 100 µM | RPMI-8226 > 100 µM | RXF 393 > 100 µM | SF-268 > 100 µM | SF-295 > 100 µM | SF-539 > 100 µM | SK-MEL-28 > 100 µM | SK-MEL-2 > 100 µM | SK-MEL-5 > 100 µM | SK-OV-3 > 100 µM | SN12C > 100 µM | SNB-19 > 100 µM | SNB-75 > 100 µM | SR > 100 µM | SW-620 > 100 µM | T47D > 100 µM | TK-10 > 100 µM | U-251 > 100 µM | UACC-257 > 100 µM | UACC-62 > 100 µM | UO-31 > 100 µM
> 100 µM: HCT-15

CN1C(=O)C2(c3ccccc31)C1CC3C(CO1)C1C2C3(CO)CN1C#N (stereo not given)
> 100 µM: HCT-15
inactive: 786-0 > 100 µM | A549 > 100 µM | ACHN > 100 µM | BT-549 > 100 µM | CAKI-1 > 100 µM | CCRF-CEM > 100 µM | COLO 205 > 100 µM | DU-145 > 100 µM | EKVX > 100 µM | HCC 2998 > 100 µM | HCT-116 > 100 µM | HL-60 > 100 µM | HOP-62 > 100 µM | HOP-92 > 100 µM | HT-29 > 100 µM | Hs-578T > 100 µM | IGROV-1 > 100 µM | K562 > 100 µM | KM12 > 100 µM | LOX IMVI > 100 µM | M14 > 100 µM | MCF7 > 100 µM | MDA-MB-231 > 100 µM | MDA-MB-435 > 100 µM | MDA-N > 100 µM | MOLT-4 > 100 µM | Malme-3M > 100 µM | NCI-H226 > 100 µM | NCI-H23 > 100 µM | NCI-H460 > 100 µM | NCI-H522 > 100 µM | NCI/ADR-RES > 100 µM | OVCAR-3 > 100 µM | OVCAR-4 > 100 µM | OVCAR-5 > 100 µM | OVCAR-8 > 100 µM | PC-3 > 100 µM | RPMI-8226 > 100 µM | RXF 393 > 100 µM | SF-268 > 100 µM | SF-295 > 100 µM | SK-MEL-28 > 100 µM | SK-MEL-2 > 100 µM | SK-MEL-5 > 100 µM | SK-OV-3 > 100 µM | SN12C > 100 µM | SNB-19 > 100 µM | SNB-75 > 100 µM | SR > 100 µM | T47D > 100 µM | TK-10 > 100 µM | U-251 > 100 µM | UACC-257 > 100 µM | UACC-62 > 100 µM | UO-31 > 100 µM

CN(C)c1cccc(-c2cc(=S)c3cc4c(cc3[nH]2)OCO4)c1
4.74 µM: HCT-15
inactive: 786-0 6.07 µM | A498 > 100 µM | A549 4.85 µM | ACHN 7.93 µM | BT-549 > 100 µM | CAKI-1 11.1 µM | CCRF-CEM 4.26 µM | COLO 205 14.8 µM | DU-145 4.74 µM | EKVX 7.62 µM | HCC 2998 7.89 µM | HCT-116 5.74 µM | HOP-62 > 27.5 µM | HOP-92 > 100 µM | HT-29 6.24 µM | Hs-578T 4.28 µM | IGROV-1 6.38 µM | KM12 5.13 µM | LOX IMVI 7.73 µM | M14 5.28 µM | MCF7 4.94 µM | MDA-MB-231 31.9 µM | MDA-MB-435 1.76 µM | MDA-N 2.83 µM | MOLT-4 15.8 µM | Malme-3M 8.28 µM | NCI-H226 5.7 µM | NCI-H23 5.62 µM | NCI-H460 4.59 µM | NCI-H522 12.6 µM | NCI/ADR-RES 3.94 µM | OVCAR-3 8.67 µM | OVCAR-4 > 100 µM | OVCAR-5 > 64.9 µM | OVCAR-8 6.43 µM | PC-3 3.61 µM | RPMI-8226 > 21.1 µM | RXF 393 4.83 µM | SF-268 > 61.2 µM | SF-295 4.6 µM | SF-539 4.27 µM | SK-MEL-28 > 100 µM | SK-MEL-2 24.4 µM | SK-MEL-5 3.4 µM | SK-OV-3 6.14 µM | SN12C 16.4 µM | SNB-19 4.7 µM | SR 4.95 µM | SW-620 5.15 µM | T47D 6.87 µM | TK-10 > 77.4 µM | U-251 > 20.7 µM | UACC-257 9.25 µM | UACC-62 6.27 µM | UO-31 18.4 µM
